In one data set the target is T1, CYP3A4 (Homo sapiens, UniProt P08684).
T1 construct: purchased BD Gentest
The data set can be described thus: Metabolic stability in CYP3A4 Supersomes. The data set is classed as in vitro ADME. The note with it: human, recombinant CYP3A4 Supersomes, 1 μM test compound. On the procedure:
(§1) Materials: CYP3A4 Supersomes™ were obtained from BD Gentest. β-nicotinamide adenine dinucleotide phosphate, reduced form (NADPH), magnesium chloride (MgCl2), and dimethyl sulfoxide (DMSO) were purchased from Sigma-Aldrich.
(§2) Determination of Metabolic Stability: 7.5 mM stock solutions of test compounds were prepared in DMSO. The 7.5 mM stock solutions were diluted to 50 μM in acetonitrile (ACN). The 1000 pmol/mL CYP3A4 supersomes were diluted to 50 pmol/mL in 0.1 M potassium phosphate buffer, pH 7.4, containing 3 mM MgCl2. The diluted supersomes were added to wells of a 96-well deep-well polypropylene plate in triplicate. 10 μL of the 50 μM test compound was added to the supersomes and the mixture was pre-warmed for 10 minutes. Reactions were initiated by addition of pre-warmed NADPH solution. The final reaction volume was 0.5 mL and contained 40 pmol/mL CYP3A4 supersomes, 1 μM test compound, and 2 mM NADPH in 0.1 M potassium phosphate buffer, pH 7.4, and 3 mM MgCl2. The reaction mixtures were incubated at 37° C. and 50 μL aliquots were removed at 0, 5, 10, 20, and 30 minutes and added to shallow-well 96-well plates which contained 50 μL of ice-cold ACN with internal standard to stop the reactions. The plates were stored at 4° C. for 20 minutes after which 100 μL of water was added to the wells of the plate before centrifugation to pellet precipitated proteins. Supernatants were transferred to another 96-well plate and analyzed for amounts of parent remaining by LC-MS/MS using an Applied Bio-systems API 4000 mass spectrometer.
(§3) Data analysis: The in vitro t1/2s for test compounds were calculated from the slopes of the linear regression of % parent remaining (ln) vs incubation time relationship. • in vitro t1/2=0.693/k • k=−[slope of linear regression of % parent remaining(ln) vs incubation time]
(§4) Data analysis was performed using Microsoft Excel Software.

In another data set the target is T2, CYP3A4 supersomes (Homo sapiens, UniProt P08684).
T2 construct: purchased BD Gentest
Description: Metabolic stability in CYP3A4 Supersomes. The data set is classed as in vitro ADME. The note with it: for increase of in vitro t1/2 over non-deuterated bosentan: CYP3A4 supersomes, under the assay conditions tested, approximate values; for % Difference: [(deuterated species) − (nondeuterated species)](100)/(nondeuterated species), of Ave t1/2 vs bosentan. As for the experimental part: as §1, §2, §3, §4

For data set [1] the following is noted: active metabolite of bosentan; cited from earlier work.
Where [2] appears, read: pH 7.4, average of Experiments 1 and 2, CYP3A4 supersomes, read-out: Ave t1/2.
Setting [3] is: pH 7.4, in vitro half-life, 40 pmol/mL CYP3A4 supersomes, 2 mM NADPH, pH 7.4, 37° C., 0-30 minutes, Experiment 1, read-out: t1/2 (minutes) Experiment 1.
Setting [4] is: pH 7.4, in vitro half-life, 40 pmol/mL CYP3A4 supersomes, 2 mM NADPH, pH 7.4, 37° C., 0-30 minutes, Experiment 2, read-out: t1/2 (minutes) Experiment 2.

Like-named read-outs stand apart in the source and are kept apart here.

T1 sequence (P08684 whole entry): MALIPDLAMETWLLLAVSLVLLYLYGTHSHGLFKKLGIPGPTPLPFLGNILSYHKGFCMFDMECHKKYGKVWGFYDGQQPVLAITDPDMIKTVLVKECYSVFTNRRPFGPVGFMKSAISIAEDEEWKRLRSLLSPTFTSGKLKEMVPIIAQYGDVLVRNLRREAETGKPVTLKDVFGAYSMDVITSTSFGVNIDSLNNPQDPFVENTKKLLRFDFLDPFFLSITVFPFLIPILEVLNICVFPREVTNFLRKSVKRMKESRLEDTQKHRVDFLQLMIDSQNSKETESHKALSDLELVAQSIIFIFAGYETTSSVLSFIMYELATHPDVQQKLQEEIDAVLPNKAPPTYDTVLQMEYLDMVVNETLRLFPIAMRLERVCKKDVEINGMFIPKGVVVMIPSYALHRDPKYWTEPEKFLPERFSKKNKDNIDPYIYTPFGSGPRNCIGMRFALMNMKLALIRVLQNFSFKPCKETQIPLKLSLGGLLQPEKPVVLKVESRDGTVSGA
T2 sequence (P08684 whole entry): as above

In the case of `COc1ccccc1Oc1c(NS(=O)(=O)c2ccc(C(C)(C)C)cc2)nc(-c2ncccn2)nc1OCCO` [Bosentan, N[6-(2-hydroxyethoxy)-5-(2-methoxyphenoxy)-2-pyrimidin-2-yl-pyrimidin-4-yl]-4-tert-butyl-benzenesulfonamide, reference compound], the half-life at 1 μM came to 35.8 min on CYP3A4 (setting [2]), 34.3 min on CYP3A4 (setting [3]) and 37.2 min on CYP3A4 (setting [4]).

For `[2H]C([2H])([2H])Oc1ccccc1Oc1c(NS(=O)(=O)c2ccc(C(C([2H])([2H])[2H])(C([2H])([2H])[2H])C([2H])([2H])[2H])cc2)nc(-c2ncccn2)nc1OCCO` [Compound 101, 4-(tert-Butyl-d9)-N-(6-(2-hydroxyethoxy)-5-(2-(methoxy-d3)-phenoxy)-2,2′-bipyrimidin-4-yl)benzenesulfonamide], the half-life at 1 μM on CYP3A4 (setting [2]) stood at 41.2 min; on CYP3A4 (setting [3]) it was 41 min; at CYP3A4 (setting [4]) it was 41.3 min. In addition, the “increase of in vitro t1/2 over non-deuterated bosentan” value on CYP3A4 supersomes is reported as around 15%. In addition, the “% Difference” value at CYP3A4 supersomes was found to be 15.1%.

As to `[2H]C([2H])([2H])Oc1ccccc1Oc1c(NS(=O)(=O)c2ccc(C(C)(C)C)cc2)nc(-c2ncccn2)nc1OCCO` [Compound 102, 4-tert-Butyl-N-(6-(2-hydroxyethoxy)-5-(2-(methoxy-d3)-phenoxy)-2,2′-bipyrimidin-4-yl)benzenesulfonamide], the half-life at 1 μM at CYP3A4 (setting [2]) stood at 46.2 min; on CYP3A4 (setting [3]), 45.7 min; at CYP3A4 (setting [4]), 46.8 min. Further, the “increase of in vitro t1/2 over non-deuterated bosentan” value at CYP3A4 supersomes was around 29%. Besides, the “% Difference” value at CYP3A4 supersomes worked out at 29.1%.

As for `[2H]C([2H])([2H])C(c1ccc(S(=O)(=O)Nc2nc(-c3ncccn3)nc(OCCO)c2Oc2ccccc2OC)cc1)(C([2H])([2H])[2H])C([2H])([2H])[2H]` [Compound 103, 4-(tert-Butyl-d9)-N-(6-(-2-hydroxyethoxy)-5-(2-methoxyphenoxy)-2,2′-bipyrimidin-4-yl)benzenesulfonamide], the half-life at 1 μM was 38.2 min at CYP3A4 (setting [2]), 35.9 min at CYP3A4 (setting [3]) and 40.5 min on CYP3A4 (setting [4]). Moreover, on CYP3A4 supersomes, the “% Difference” value was 6.7%.

Take `[2H]C([2H])(O)COc1nc(-c2ncccn2)nc(NS(=O)(=O)c2ccc(C(C)(C)C)cc2)c1Oc1ccccc1OC` [Compound 104, 4-tert-Butyl-N-(6-(2-hydroxy-2,2-d2-ethoxy)-5-(2-methoxyphenoxy)-2,2′-bipyrimidin-4-yl)benzenesulfonamide]: the half-life at 1 μM on CYP3A4 (setting [2]) was 31.6 min; on CYP3A4 (setting [3]) it was 30.9 min; at CYP3A4 (setting [4]), 32.4 min. The “% Difference” value at CYP3A4 supersomes is recorded as −11.7%.

Turning to `[2H]C([2H])(O)COc1nc(-c2ncccn2)nc(NS(=O)(=O)c2ccc(C(C([2H])([2H])[2H])(C([2H])([2H])[2H])C([2H])([2H])[2H])cc2)c1Oc1ccccc1OC([2H])([2H])[2H]` [Compound 106, 4-(tert-Butyl-d9)-N-(6-(2-hydroxy-2,2-d2-ethoxy)-5-(2-(methoxy-d3)phenoxy)-2,2′-bipyrimidin-4-yl)benzenesulfonamide], the half-life at 1 μM is 55.2 min at CYP3A4 (setting [2]), 53.3 min on CYP3A4 (setting [3]) and 57.2 min on CYP3A4 (setting [4]). Moreover, the “increase of in vitro t1/2 over non-deuterated bosentan” value on CYP3A4 supersomes is on record as around 54%. Moreover, on CYP3A4 supersomes, the “% Difference” value turned out to be 54.2%.

Turning to `COc1ccccc1Oc1c(NS(=O)(=O)c2ccc(C(C)(C)CO)cc2)nc(-c2ncccn2)nc1OCCO` [hydroxybosentan], the “share of the overall pharmaceutical properties of bosentan” value in data set [1] was “up to 20%”.

(Values after patent publication US8080549B2, “Endothelin receptor antagonists” (CoNCERT Pharmaceuticals, Inc., priority 2007, dated 2011).)
